Measurements published in patent US12403137B2, “Compounds and methods of use” (Tango Therapeutics, Inc., priority 2019, dated 2025).

Tests used:
[1] = target: T1, PRMT5 (Homo sapiens, UniProt O14744); experiment: PRMT5 inhibition assay with MTA as cofactor; assay type: biochemical; conditions: for IC50: against PRMT5 with MTA as cofactor; for SAM/MTA Ratio: ratio of Ki in the presence of SAM to Ki in the presence of MTA, Ki=IC50/1.5 (SAM), Ki=IC50/13.5 (MTA)
T1 construct: purchased Viva (custom protein)
T1 sequence (O14744 whole entry): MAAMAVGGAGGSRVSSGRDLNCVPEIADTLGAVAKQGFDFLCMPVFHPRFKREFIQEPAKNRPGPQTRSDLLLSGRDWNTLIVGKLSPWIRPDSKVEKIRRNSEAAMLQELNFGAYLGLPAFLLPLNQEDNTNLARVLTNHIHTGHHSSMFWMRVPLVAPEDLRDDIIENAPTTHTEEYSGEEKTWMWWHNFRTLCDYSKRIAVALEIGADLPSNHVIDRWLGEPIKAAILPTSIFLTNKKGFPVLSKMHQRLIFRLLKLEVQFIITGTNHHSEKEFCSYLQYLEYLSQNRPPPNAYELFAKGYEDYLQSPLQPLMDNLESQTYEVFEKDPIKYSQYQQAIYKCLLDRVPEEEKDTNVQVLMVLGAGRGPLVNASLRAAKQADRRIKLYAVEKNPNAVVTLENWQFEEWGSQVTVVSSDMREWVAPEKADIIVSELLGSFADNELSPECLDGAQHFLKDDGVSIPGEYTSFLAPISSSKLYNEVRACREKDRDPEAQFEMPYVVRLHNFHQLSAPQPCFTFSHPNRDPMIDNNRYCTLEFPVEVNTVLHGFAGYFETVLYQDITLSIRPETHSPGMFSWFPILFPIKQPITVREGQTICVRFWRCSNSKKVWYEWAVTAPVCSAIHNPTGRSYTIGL
T1 sequence (Q9BQA1 whole entry partner): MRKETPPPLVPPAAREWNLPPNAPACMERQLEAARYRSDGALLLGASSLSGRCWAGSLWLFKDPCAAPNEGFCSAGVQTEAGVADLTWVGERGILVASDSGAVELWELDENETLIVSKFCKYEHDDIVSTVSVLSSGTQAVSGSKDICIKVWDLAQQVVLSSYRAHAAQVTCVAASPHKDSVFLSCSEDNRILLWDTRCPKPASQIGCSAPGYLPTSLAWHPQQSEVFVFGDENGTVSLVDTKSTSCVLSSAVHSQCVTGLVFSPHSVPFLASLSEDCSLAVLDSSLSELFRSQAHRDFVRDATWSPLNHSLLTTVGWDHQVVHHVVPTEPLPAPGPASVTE
Source text: (§1) The Ki values can be calculated from the IC50 values as described in the Examples section. As detailed in the Examples section, for the assay performed in the presence of SAM, IC50=Ki×1.5 (Ki=IC50/1.5). For the assay performed in the presence of MTA, IC50=Ki×13.5 (Ki=IC50/13.5). Column 6 indicates the ratio between the Ki of compounds in the presence of SAM and the Ki of compounds in the presence of MTA

[2] = test system: HAP1 MTAP-intact cell line; experiment: SDMA in-cell western assay, HAP1 MTAP-intact; assay type: cell-based; conditions: Homo sapiens
In short: (§2)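 IC50 values come from an SDMA in-cell western run in isogenic HAP1 cells, either MTAP-null or expressing endogenous MTAP. The intact-to-deleted IC50 ratio is used to score MTAP selectivity.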

[3] = target: T1, PRMT5; experiment: PRMT5 inhibition assay with no cofactor; assay type: biochemical; conditions: against PRMT5 with no cofactor; read-out: No Co-factor IC50
[4] = target: T1, PRMT5; experiment: PRMT5 inhibition assay with SAM as cofactor; assay type: biochemical; conditions: against PRMT5 in the presence of SAM as cofactor
Source text: as §1

[5] = test system: HAP1 MTAP-deleted cell line; experiment: SDMA in-cell western assay, HAP1 MTAP-deleted; assay type: cell-based; conditions: for IC50: Homo sapiens, HAP1 MTAP-deleted (MTAP-null) cell line; for MTAP Intact/Deleted Ratio: IC50 ratio HAP1 MTAP-intact / HAP1 MTAP-deleted, >=3 fold considered MTAP-selective
In short: as §2

| Structure (SMILES) | IC50 [1] | SAM/MTA Ratio [1] | IC50 [2] | IC50 [3] | IC50 [4] | IC50 [5] | MTAP Intact/Deleted Ratio [5] |
| --- | --- | --- | --- | --- | --- | --- | --- |
| COc1cnc(NC2CCC2)cc1C(=O)NC[C@@H](O)[C@@H]1Cc2ccc(OCc3ocnc3C)cc2CN1 [Compound 36, 2-(cyclobutylamino)-N—((R)-2-hydroxy-2-((S)-7-((4-methyloxazol-5-yl)methoxy)-1,2,3,4-tetrahydroisoquinolin-3-yl)ethyl)-5-methoxyisonicotinamide] | < 50 nM | A (a Ki ratio greater than or equal to 10 fold between the Ki in the presence of SAM and the Ki in the presence of MTA) | 1000 to 10000 nM | 500 to 5000 nM | 50 to 500 nM | < 1000 nM | B* (an IC50 ratio greater than or equal to 3 fold but lower than 10 fold between the IC50 in the HAP1 MTAP-intact cell line and the HAP1 MTAP-deleted cell line) |
| CC(=O)N1CC(Nc2cc(C(=O)NC[C@@H](O)[C@@H]3Cc4ccc(OCc5ocnc5C)cc4CN3)cc(N3CCCCC3)n2)C1 [Compound 45, 2-[(1-acetylazetidin-3-yl)amino]-N-[(2R)-2-hydroxy-2-[(3S)-7-[(4-methyloxazol-5-yl)methoxy]-1,2,3,4-tetrahydroisoquinolin-3-yl]ethyl]-6-(1-piperidyl)pyridine-4-carboxamide] | < 50 nM | A (a Ki ratio greater than or equal to 10 fold between the Ki in the presence of SAM and the Ki in the presence of MTA) | ≥ 10000 nM | 50 to 500 nM | 50 to 500 nM | < 1000 nM | A* (an IC50 ratio greater than or equal to 10 fold between the IC50 in the HAP1 MTAP-intact cell line and the HAP1 MTAP-deleted cell line) |
| COCCN(C)c1cc(C(=O)NC[C@@H](O)[C@@H]2Cc3ccc(OCc4ocnc4C)cc3CN2)cc(NC2CCC2)n1 [Compound 33, 2-(cyclobutylamino)-N—((R)-2-hydroxy-2-((S)-7-((4-methyloxazol-5-yl)methoxy)-1,2,3,4-tetrahydroisoquinolin-3-yl)ethyl)-6-((2-methoxyethyl)(methyl)amino)isonicotinamide] | 50 to 500 nM | A (a Ki ratio greater than or equal to 10 fold between the Ki in the presence of SAM and the Ki in the presence of MTA) | 1000 to 10000 nM | 50 to 500 nM | 50 to 500 nM | < 1000 nM | B* (an IC50 ratio greater than or equal to 3 fold but lower than 10 fold between the IC50 in the HAP1 MTAP-intact cell line and the HAP1 MTAP-deleted cell line) |
| Cc1ncoc1COc1ccc2c(c1)CN[C@H]([C@H](O)CNC(=O)c1cc(NC3CCC3)ncn1)C2 [Compound 32, 6-(cyclobutylamino)-N—((R)-2-hydroxy-2-((S)-7-((4-methyloxazol-5-yl)methoxy)-1,2,3,4-tetrahydroisoquinolin-3-yl)ethyl)pyrimidine-4-carboxamide] | < 50 nM | A (a Ki ratio greater than or equal to 10 fold between the Ki in the presence of SAM and the Ki in the presence of MTA) | 1000 to 10000 nM | 500 to 5000 nM | 50 to 500 nM | < 1000 nM | B* (an IC50 ratio greater than or equal to 3 fold but lower than 10 fold between the IC50 in the HAP1 MTAP-intact cell line and the HAP1 MTAP-deleted cell line) |
| CCOc1cc(C(=O)N2C3CCC2COC3)ccc1C(=O)NC[C@@H](O)[C@@H]1Cc2ccc(OCc3ccnn3C)cc2CN1 [Compound 5, 4-(3-oxa-8-azabicyclo[3.2.1]octane-8-carbonyl)-2-ethoxy-N—((R)-2-hydroxy-2-((S)-7-((1-methyl-1H-pyrazol-5-yl)methoxy)-1,2,3,4-tetrahydroisoquinolin-3-yl)ethyl)benzamide] | 50 to 500 nM | A (a Ki ratio greater than or equal to 10 fold between the Ki in the presence of SAM and the Ki in the presence of MTA) | < 1000 nM | 500 to 5000 nM | 50 to 500 nM | < 1000 nM | C* (an IC50 ratio of less than 3 fold between the IC50 in the HAP1 MTAP-intact cell line and the HAP1 MTAP-deleted cell line) |
